The target of this assay is T1, Tg-P450 (Toxoplasma gondii, UniProt S8EQL7).
T1 construct: gene TGME49_315770; P450 knockout as negative control
Description: in situ fluorescence microscopy of resorufin formation (rhodamine filter), knockout control. To be noted: 1 uM, 24 h, 37 °C; live tachyzoites in HepG2 cells; strain given as Tg-P450 OE in text, GT1 in figure legend. Format: cell-based.

T1 sequence (S8EQL7 entry or part of it): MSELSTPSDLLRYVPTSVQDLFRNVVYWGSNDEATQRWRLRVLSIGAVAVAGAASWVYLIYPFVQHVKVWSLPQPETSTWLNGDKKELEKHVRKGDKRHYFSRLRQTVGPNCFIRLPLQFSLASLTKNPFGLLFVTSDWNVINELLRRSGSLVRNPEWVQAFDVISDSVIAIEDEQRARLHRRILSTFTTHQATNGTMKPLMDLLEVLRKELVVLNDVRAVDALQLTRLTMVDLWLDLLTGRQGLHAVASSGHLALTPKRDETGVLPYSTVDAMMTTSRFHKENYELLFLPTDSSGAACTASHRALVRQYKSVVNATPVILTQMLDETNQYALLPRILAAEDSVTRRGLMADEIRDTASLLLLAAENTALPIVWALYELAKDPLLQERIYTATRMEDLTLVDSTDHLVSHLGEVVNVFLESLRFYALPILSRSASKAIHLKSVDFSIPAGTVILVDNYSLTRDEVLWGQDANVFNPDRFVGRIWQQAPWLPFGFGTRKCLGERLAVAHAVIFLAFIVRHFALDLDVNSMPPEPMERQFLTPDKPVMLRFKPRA

Consider `O=c1ccc2nc3ccc(OCc4ccccc4)cc3oc-2c1` [BR, benzoxyresorufin], for which the “in situ fluorescence microscopy of resorufin formation (rhodamine filter), knock” value is “After treating the P450 knockout parasites with PR and BR, no fluorescence was observed”.
As for `CCCCCOc1ccc2nc3ccc(=O)cc-3oc2c1` [PR, pentoxyresorufin], the “in situ fluorescence microscopy of resorufin formation (rhodamine filter), knock” value was “a weak specific fluorescence signal was visible in the Tg-P450 OE strain”.
